Results on 15 molecules are retold here after US9012651B2, “TRPV3 modulators” (AbbVie Inc., priority 2011, dated 2015).

Some results are limits rather than exact numbers.

Sequence of human TRPV3 receptors (Q8NET8 whole entry): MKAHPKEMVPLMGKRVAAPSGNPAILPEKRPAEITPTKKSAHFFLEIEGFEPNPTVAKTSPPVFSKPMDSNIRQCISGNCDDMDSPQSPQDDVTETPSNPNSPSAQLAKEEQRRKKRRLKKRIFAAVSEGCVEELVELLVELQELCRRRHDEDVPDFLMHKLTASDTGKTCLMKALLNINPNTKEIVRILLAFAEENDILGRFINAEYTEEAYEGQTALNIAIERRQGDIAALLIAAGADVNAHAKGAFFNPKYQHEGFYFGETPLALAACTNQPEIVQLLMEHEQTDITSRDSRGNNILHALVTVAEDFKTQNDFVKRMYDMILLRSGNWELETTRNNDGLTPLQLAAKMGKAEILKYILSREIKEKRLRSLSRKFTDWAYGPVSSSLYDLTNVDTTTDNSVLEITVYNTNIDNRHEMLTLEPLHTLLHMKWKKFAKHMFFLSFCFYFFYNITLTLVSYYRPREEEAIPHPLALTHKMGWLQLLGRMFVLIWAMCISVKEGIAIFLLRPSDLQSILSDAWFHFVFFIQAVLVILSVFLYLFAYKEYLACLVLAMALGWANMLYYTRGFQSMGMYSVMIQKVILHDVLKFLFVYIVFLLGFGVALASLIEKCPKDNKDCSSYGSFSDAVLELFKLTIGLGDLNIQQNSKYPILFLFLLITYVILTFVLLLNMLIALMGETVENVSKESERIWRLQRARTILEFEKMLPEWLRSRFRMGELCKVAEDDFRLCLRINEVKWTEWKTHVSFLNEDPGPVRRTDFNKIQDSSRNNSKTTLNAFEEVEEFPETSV

One experiment addresses human TRPV3 receptors (Homo sapiens (Human), UniProt Q8NET8). Put plainly: Calcium flux assay (FLIPR TETRA), inhibition of the 2-APB response. Type of experiment: cell-based. Conditions: recombinant HEK293 cells stably expressing TRPV3, Calcium-4 dye, 2-APB at its EC80. In a few lines: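 Responses are given relative to the maximal 2-APB signal in the absence of compound, using peak fluorescence over baseline. Measured by FLIPR Tetra calcium flux in stable human and mouse TRPV3 HEK293 cells after 90-120 min dark dye incubation.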
Take `CC(C)[C@H](CO)NCc1nc(C2CCCCC2)ccc1F` [Example 129]: the IC50 (commonly the concentration that gives 50% inhibition) came to 0.36 µM.
On to `CC(C)[C@H](CO)NCc1nc(-c2ccc(F)cn2)ccc1F` [Example 36, (2R)-2-{[(5,5′-difluoro-2,2′-bipyridin-6-yl)methyl]amino}-3-methylbutan-1-ol], for which the IC50 worked out at 0.95 µM.
`CC(C)(C)[C@H](CO)NCc1nc(-c2ccc(C(F)(F)F)nc2)ccc1F` [Example 89, (2R)-2-({[5-fluoro-6′-(trifluoromethyl)-2,3′-bipyridin-6-yl]methyl}amino)-3,3-dimethylbutan-1-ol]: the IC50 is 0.51 µM.
For `OCC1(NCc2ccnc(-c3ccc(C(F)(F)F)nc3)n2)CCCCC1` [Example 185, {1-[({2-[6-(trifluoromethyl)pyridin-3-yl]pyrimidin-4-yl}methyl)amino]cyclohexyl}methanol], the IC50 is above 20 µM.
On the same count and under the same terms, with `C[C@H](CO)NCc1nc(-c2ccc(C(F)(F)F)cc2)ccc1F` [Example 82, (2R)-2-[({3-fluoro-6-[4-(trifluoromethyl)phenyl]pyridin-2-yl}methyl)amino]propan-1-ol] the figure was 1.64 µM; with `CC(O)C(C)NCc1ccnc(-c2ccc(C(F)(F)F)cc2)n1` (centres unmarked) [Example 148, 3-[({2-[4-(trifluoromethyl)phenyl]pyrimidin-4-yl}methyl)amino]butan-2-ol], 1.87 µM; with `CC(C)[C@H](CO)NCc1nc(-c2cccc(S(=O)(=O)N3CCOCC3)c2)ccc1F` [Example 54, (2R)-2-[({3-fluoro-6-[3-(morpholin-4-ylsulfonyl)phenyl]pyridin-2-yl}methyl)amino]-3-methylbutan-1-ol], 0.76 µM.
Still for that read-out and setting: with `CC(C)[C@H](CO)NCc1nc(C2CCCN(C(=O)OC(C)(C)C)C2)ccc1F` (stereo partly drawn) [Example 219, tert-butyl 3-[5-fluoro-6-({[(2R)-1-hydroxy-3-methylbutan-2-yl]amino}methyl)pyridin-2-yl]piperidine-1-carboxylate] the figure was 0.66 µM; with `CC(C)[C@H](CO)NCc1nccc(-c2ccc(F)cc2)n1` [Example 32, (2R)-2-({[4-(4-fluorophenyl)pyrimidin-2-yl]methyl}amino)-3-methylbutan-1-ol], 12 µM; with `O=S(=O)(c1ccc(-c2nccc(CNC3(CO)CCCCC3)n2)cc1)C(F)(F)F` [Example 208, (1-{[(2-{4-[(trifluoromethyl)sulfonyl]phenyl}pyrimidin-4-yl)methyl]amino}cyclohexyl)methanol], 13.5 µM.
Turning to `CC(C)[C@H](CO)NCc1nc(-c2ccc(C(F)(F)F)nc2)ccc1F` [Example 28, (2R)-2-({[5-fluoro-6′-(trifluoromethyl)-2,3′-bipyridin-6-yl]methyl}amino)-3-methylbutan-1-ol], the IC50 amounted to 0.95 µM.
As to `OCC1(CNCc2ccnc(-c3ccc(C(F)(F)F)cc3)n2)CCOCC1` [Example 161], the IC50 is above 20 µM.
For the molecule `CC(C)[C@H](CO)NCc1ccc(F)c(-c2ccc(C(F)(F)F)nc2)n1` [Example 109, (2R)-2-({[3-fluoro-6′-(trifluoromethyl)-2,3′-bipyridin-6-yl]methyl}amino)-3-methylbutan-1-ol], the IC50 was 3.59 µM.

A further experiment concerns mouse Chronic Constriction Injury Model of neuropathic pain. Put plainly: Chronic Constriction Injury (CCI) model of neuropathic pain, mechanical allodynia (von Frey). Type of experiment: in vivo. To be noted: CD1 mice; acute oral administration, 100 mg/kg oral dose; 1 hour pretreatment P.O.; von Frey monofilaments. From the text:
Chronic Constriction Injury (CCI) Model of Neuropathic Pain:
CD1 mice (Charles River) were used for these studies. Prior to testing (2-4 weeks) animals underwent a surgical procedure consisting of approximately 3 loose ligatures around the sciatic nerve. Briefly, following sterilization procedures, under isofluorane anesthetic, a 1.5 cm incision was made dorsal to the pelvis. The biceps femoris and gluteous superficialis (right side) were separated and the sciatic nerve exposed, isolated, and 2-4 loose ligatures (5-0 chromic gut) with <1 mm spacing were placed around it. Following hemostasis, the wound was sutured (layer of muscle closed with 5-0 nylon suture, and the wound closed with surgical staples) and coated with iodine. The mice were allowed to recover on a warming plate and are returned to their home cages (soft bedding) when able to walk on their own. Two to four weeks after the surgery, TRPV3 antagonsists were tested in these mice following P.O. (1 hour pretreatment) or I.P. (30 minutes pretreatment) dosing, and mechanical allodynia evaluated where the threshold to response was assessed using calibrated von Frey monofilaments. The von Frey monofilaments were applied to the hind paw at increasing forces until the animal responded by lifting its paw. […]
For the molecule `CC(C)[C@H](CO)NCc1nc(C2CCCCC2)ccc1F` [Example 129], the “effects vs. vehicle in the mouse Chronic Constriction Injury Model of neuropathic pain” value was “statistically significant effects vs. vehicle”.
Still for that read-out and setting: under `CC(C)[C@H](CO)NCc1nc(-c2ccc(C(F)(F)F)nc2)ccc1F` [Example 28, (2R)-2-({[5-fluoro-6′-(trifluoromethyl)-2,3′-bipyridin-6-yl]methyl}amino)-3-methylbutan-1-ol] stands “statistically significant effects vs. vehicle”.

A further experiment concerns TRPV3.
Assay: not given
To be noted: TRPV3 activation; relatively weak and nonspecific across TRPs; cited from earlier work.
Consider `c1ccc(B(OB(c2ccccc2)c2ccccc2)c2ccccc2)cc1` [DPBA, diphenylboronic anhydride], for which the EC50 (commonly the concentration at which the effect is half-maximal) is around 40 µM.
With `NCCOB(c1ccccc1)c1ccccc1` [Example 2-APB, 2-aminoethoxydiphenylborate], the EC50 was around 40 µM.
